Assay: Effect of EO adduct added to 62% K-glyphosate solution (clear or hazy)
Assay type: physicochemical
Conditions: ~25% added into a 62% K-glyphosate solution
Source text: Therefore, even a slight reduction in concentration of the higher EO adduct could improve the cloud point of glyphosate formulation dramatically.

## OCCOCCO [diethylene glycol]
  Appearance of solution after addition: clear solution
